Source: patent US6383773B2, “Penicillin conversion” (Massachusetts Institute of Technology, priority 1998, dated 2002)

Tests used:
[1] = molecular target: T1, S. clavuligerus expandase (Streptomyces clavuligerus, UniProt P18548); assay: Penicillin ring expansion by cell-free S. clavuligerus expandase extracts, paper disc-agar diffusion bioassay; assay type: biochemical; settings: for DAOG: cell-free extract
T1 construct: endogenous in cells; host or cells: S. clavuligerus mutant NP1, crude cell-free extract
T1 sequence (P18548 whole entry, the tested form may be a part): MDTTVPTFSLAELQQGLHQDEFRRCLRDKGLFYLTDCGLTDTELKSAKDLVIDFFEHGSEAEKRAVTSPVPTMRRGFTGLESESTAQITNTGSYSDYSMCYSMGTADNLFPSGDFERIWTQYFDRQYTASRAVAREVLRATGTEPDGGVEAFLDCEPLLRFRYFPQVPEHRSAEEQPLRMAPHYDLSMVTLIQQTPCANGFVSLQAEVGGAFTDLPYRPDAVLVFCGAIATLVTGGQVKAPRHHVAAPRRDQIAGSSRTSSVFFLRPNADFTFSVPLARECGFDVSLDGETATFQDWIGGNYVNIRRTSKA
Method: Preparation of Cell-free Extracts: Fermentation broths were centrifuged at 8,000×g and 4° C. for 10 min. Pellets were washed twice using 50 mM Tris-HCI supplemented with 0.1 mM dithiothreitol (DTT). The cells were resuspended in the same buffer and disrupted by four 25-sec. sonication treatments (power setting 5 and duty cycle 50%), in an ice-water bath using a Branson 350 sonifier (Branson Sonic Power Co., Danbury, Conn.). Cell debris was removed by centrifugation (14,000×g, 30 min., 4° C.). The resulting extracts containing 8-10 mg protein/ml were placed on ice and utilized immediately. Protein concentrations were measured using the Bio-Rad protein assay (Bio-Rad, Hercules, Calif.). Bovine serum albumin was used as standard.
Ring Expansion Reaction: We defined ring expansion reaction conditions as modifications of the standard reaction mixture for expandase reactions described by Maeda et al. (Maeda et al., Enzyme Microb. Technol. 17:231-34, 1995) except that penicillin G was used a substrate instead of penicillin N. Additions were made following the order established by Shen et al. (Shen et al., Enzyme Microb. Technol. 6:402-404, 1984. Reaction mixtures were incubated in test tubes (cell-free extract) or 250 ml baffled flasks (resting cells) at 220 rpm, 30° C. Reactions containing the protein extract were stopped at various times (see Table 1 and Figure Legends) by mixing 0.5 ml of assay solution with 0.5 ml of methanol. In the case of resting cells, samples were centrifuged to remove cells and supernatants were transferred to new tubes. Expandase activity was detected by paper disc-agar diffusion bioassay.
Detection of Expandase Activity: As mentioned above, expandase activity was detected by assaying production of a growth-inhibitory zone in a paper disc-agar diffusion bioassay. Paper discs were saturated with 200 μl of the reaction mixture (cell-free extracts or supernatant (resting cells) as follows. Two discs were superimposed and four 50 μl samples were applied. After each application, the discs were allowed to dry for 20 min at 37° C. under a laminar hood and, finally, they were placed on LB (1% tryptone, 0.5% NaCl, 0.5% yeast extract, 0.1% glucose) 0.8% agar medium seeded with E. coli ESS (a β-lactam supersensitive mutant), and the plates were incubated overnight at 37° C. The formation of DAOG and/or other cephalosporin(s) was determined by including 50,000 IU/ml of penicillinase (Difco Bacto penase concentrate, Difco Laboratories, Detroit, Mich.) in the assay plates. This penicillinase is a narrow spectrum β-lactamase that attacks penicillins but not cephalosporins. The diameters of zones of growth inhibition were measured and quantified with a calibration curve using DAOG as standard.
Ring Expansion of Other Penicillins by Cell-free Extracts: We tested our reaction conditions for their ability to support ring expansion on other penicillin substrates and found detectable expansion with each of the 15 substrates that we tested. […] The reactions contained 4 mg/ml extract (protein concentration), 50 mM Tris-HCl pH 7.4, 1.8 mM FeSO4, 1.28 mM α-ketoglutarate, 8 mM MgSO4, 8 mM KCl, 4 mM ascorbic acid, 14 mM DTT, and 2 mg/ml substrate (except for penicillin mX and octanoyl-6-APA, which were used at 3 mg/ml). Samples were centrifuged at 12K rpm for 5 minutes after 2 hours of reaction. 250 μl of reaction mixture was used in each bioassay.

[2] = tested on: resting S. clavuligerus NP1 cells; assay: Penicillin G ring expansion by resting cells grown on alcohol (Example 3); assay type: cell-based

SMILES: CC1(C)S[C@@H]2[C@H](NC(=O)Cc3ccccc3)C(=O)N2[C@H]1C(=O)O [Penicillin G, penicillin G]
- Ring expansion, size of zones of inhibition ([1]; 4 mg/ml extract protein, 2 mg/ml substrate (penicillin mX and octanoyl-6-APA 3 mg/ml), 2 hours): Large zones of inhibition
- Inhibition Zone Diameter ([1]; 4 mg/ml extract protein, 2 mg/ml substrate, 2 hours of reaction, 250 μl in bioassay (E. coli ESS, penicillinase)): 29 mm
- DAOG ([1]; protein 1 mg/ml, FeSO4 0.036 mM, α-ketoglutarate 0.64 mM, penicillin G 0.1 mg/ml): <2 µg/mL
- DAOG ([1]; protein 1 mg/ml, FeSO4 0.036 mM, α-ketoglutarate 0.64 mM, penicillin G 0.3 mg/ml): <2 µg/mL
- DAOG ([1]; protein 1 mg/ml, FeSO4 0.036 mM, α-ketoglutarate 0.64 mM, penicillin G 1 mg/ml): 2.1 µg/mL
- DAOG ([1]; protein 1 mg/ml, FeSO4 1.8 mM, α-ketoglutarate 1.28 mM, penicillin G 0.1 mg/ml): <2 µg/mL
- DAOG ([1]; protein 1 mg/ml, FeSO4 1.8 mM, α-ketoglutarate 1.28 mM, penicillin G 0.3 mg/ml): <2 µg/mL
- DAOG ([1]; protein 1 mg/ml, FeSO4 1.8 mM, α-ketoglutarate 1.28 mM, penicillin G 1 mg/ml): 2.1 µg/mL
- DAOG ([1]; protein 2 mg/ml, FeSO4 0.036 mM, α-ketoglutarate 0.64 mM, penicillin G 0.1 mg/ml): <2 µg/mL
- DAOG ([1]; protein 2 mg/ml, FeSO4 0.036 mM, α-ketoglutarate 0.64 mM, penicillin G 0.3 mg/ml): 2.1 µg/mL
- DAOG ([1]; protein 2 mg/ml, FeSO4 0.036 mM, α-ketoglutarate 0.64 mM, penicillin G 1 mg/ml): 2.6 µg/mL
- DAOG ([1]; protein 2 mg/ml, FeSO4 1.8 mM, α-ketoglutarate 1.28 mM, penicillin G 0.1 mg/ml): 2.1 µg/mL
- DAOG ([1]; protein 2 mg/ml, FeSO4 1.8 mM, α-ketoglutarate 1.28 mM, penicillin G 0.3 mg/ml): 2.3 µg/mL
- DAOG ([1]; protein 2 mg/ml, FeSO4 1.8 mM, α-ketoglutarate 1.28 mM, penicillin G 1 mg/ml): 3.4 µg/mL
- DAOG ([1]; protein 4 mg/ml, FeSO4 0.036 mM, α-ketoglutarate 0.64 mM, penicillin G 0.1 mg/ml): 2.3 µg/mL
- DAOG ([1]; protein 4 mg/ml, FeSO4 0.036 mM, α-ketoglutarate 0.64 mM, penicillin G 0.3 mg/ml): 2.6 µg/mL
- DAOG ([1]; protein 4 mg/ml, FeSO4 0.036 mM, α-ketoglutarate 0.64 mM, penicillin G 1 mg/ml): 3.4 µg/mL
- DAOG ([1]; protein 4 mg/ml, FeSO4 1.8 mM, α-ketoglutarate 1.28 mM, penicillin G 0.1 mg/ml): 2.8 µg/mL
- DAOG ([1]; protein 4 mg/ml, FeSO4 1.8 mM, α-ketoglutarate 1.28 mM, penicillin G 0.3 mg/ml): 3.4 µg/mL
- DAOG ([1]; protein 4 mg/ml, FeSO4 1.8 mM, α-ketoglutarate 1.28 mM, penicillin G 1 mg/ml): 5.6 µg/mL
- penicillin G expansion ([2]; cells grown in MST medium with addition of an alcohol): completely inhibited
- Cephalosporin Production Volumetric ([2]; cells grown in MST, 3 hours of reaction, 5.6 mM penicillin G): 5.8 µg/mL
- Cephalosporin Production Specific ([2]; cells grown in MST, 3 hours of reaction, 5.6 mM penicillin G, per mg DCW): 1.0 µg/mg
